# Test results reported in patent US20240148741A1, “FORMULATION FOR ORAL ADMINISTRATION, COMPRISING TRIAZINE DERIVATIVE” (priority 2021, published 2024).
# Assay: Moisture sorption/desorption isotherm measurement (DVS)
# Type: physicochemical
# Conditions: for change in mass when the humidity was changed (DVS): 0% to 95% RH, 25° C.
# Method: About 15 to 25 mg of a sample was weighed into a sample pan, and measurement was made. Measurement conditions are as follows. • Device: DVS Adventure manufactured by Surface Measurement Systems Ltd. • Measurement points: 0% to 95% RH every 5%, and 95% RH to 0% every 5% • Temperature: 25° C.
# Regarding the comparison of the X-ray powder analysis patterns before and after the DVS measurement, measurement was performed by the following method.
# • Measuring method: reflection method • Wavelength used: CuKα ray • Tube current: 200 mA • Tube voltage: 45 kV • Sampling plate: aluminum • X-ray incident angle: 2.5° • Sampling width: 0.02° • Detector: HyPix-3000 (two-dimensional detection mode)
structure (smiles),measurement,setting,value
Cn1cnc(Cn2c(=O)[nH]/c(=N\c3cc4cn(C)nc4cc3Cl)n(Cc3cc(F)c(F)cc3F)c2=O)n1,change in mass when the humidity was changed (DVS),crystal of Example a (FIG. 6),No substantial change in mass
same,change in mass when the humidity was changed (DVS),crystal of Step 5-2 of Example 1b (FIG. 18),No substantial change in mass
same,crystalline form before and after the DVS measurement (X-ray powder patterns),crystal of Step 5-2 of Example 1b (FIG. 19),did not change
